Values of other authors in patent publication US20240000727A1, “STABLE COATED SOLID PHARMACEUTICAL COMPOSITION OF AN OPIOID ANALGESIC AND AN ANTI-EPILEPTIC FOR PAIN” (LABORATORIOS SILANES S.A. DE C.V., priority 2020, published 2024).

System: moderate to severe postoperative pain
Conditions: intravenous or intramuscular; patients with moderate to severe postoperative pain

## COc1cccc([C@@]2(O)CCCC[C@@H]2CN(C)C)c1 [tramadol, (1R,2R)-2-[(dimethylamino)methyl]-1-(3-methoxyphenyl)cyclohexan-1-ol]
  Potency relative to nalbuphine: one-fifth as potent
  Potency relative to pethidine (meperidine): equivalent
